The values that follow come from US20240225984A9, “TOPICAL COMPOSITION FOR REGULATION OF INFLAMMATION AND SKIN REGENERATION” (Glycopep Therapeutics, S.A.S. de C.V., priority 2022, published 2024).

Data set [1] can be described thus: Viability of HaCaT human keratinocytes (mitochondrial metabolic activity, tetrazolium salts / MTT). The note with it: HaCaT cells (immortalized keratinocytes).
Description: (§1) We worked with HaCaT cells, an immortalized human keratinocyte cell line, which were cultured in DMEM medium supplemented (1 g/L glucose, 4 mM L-alanyl-glutamine, 10% inactivated fetal bovine serum, 50 IU/penicillin, 50 μg/ml streptomycin) at 37° C. and 5% CO2. Cells were worked between passages 3 to 7.
(§2) They were treated with 2.5 and 5% sialylated GMP, alone or combined with 0.5 and 1% panthenol for 0, 1, 2, 24 and 48 h. To define the percentage of viability of the cells with the different treatments at each of the times tested, cells not treated with either sialidinated GMP or panthenol were used as a control condition.
(§3) Once the time was up, cell viability was determined by measuring mitochondrial metabolic activity by spectrophotometric techniques and using tetrazolium salts.
The subject of data set [2] is IL-1β. Kind of data set: IL-1β/GAPDH mRNA expression in HaCaT keratinocytes with or without DNCB. The class given is cell-based, human. The conditions noted are these: without DNCB; FIG. 4. The source says: To verify that the composition of the present invention regulates the expression of genes associated with inflammation, the expression of IL-1β/GAPDH and Cox-2/GAPDH mRNA was quantified. When keratinocytes are exposed to IL-1β, they increase the levels of messenger RNA of other cytokines such as MIP-2, TNF-α, IL-10 and IL-1α. In this sense, the regulation of IL-1β is beneficial during inflammatory processes in the skin. The regulation of COX-2 is beneficial during inflammatory processes and wound regeneration.
Cells were worked between passages 3 to 7.
They were seeded in 6-well plates at a density of […] and incubated for 24 h at close to 20% confluency. After three days, 75% confluences were achieved.

For data set [3], the system named is HaCaT cells.
Description: as §1, §2, §3

With `CC(C)(CO)[C@@H](O)C(=O)NCCCO` [panthenol, Panthenol], in data set [1], the cytotoxicity at 1 % came to 30% and the cytotoxicity at 2 h, 0.5 % was found to be 30%.
Take glycomacropeptide [GMP]: in data set [2], the “expression level of IL-1β mRNA in relation to control cells” value was “decreased”. Further, in data set [3], the cell viability result was “greater than 50%”.
